Experimental findings from ChEMBL document CHEMBL1134082, “Effect of zinc ion on the inhibition of carboxypeptidase A by imidazole-bearing substrate analogues” (Bioorg Med Chem Lett, 2001) are described below.

Assay [1] addresses T1, Carboxypeptidase A1 (Bos taurus) (UniProt P00730).
T1 sequence (whole entry): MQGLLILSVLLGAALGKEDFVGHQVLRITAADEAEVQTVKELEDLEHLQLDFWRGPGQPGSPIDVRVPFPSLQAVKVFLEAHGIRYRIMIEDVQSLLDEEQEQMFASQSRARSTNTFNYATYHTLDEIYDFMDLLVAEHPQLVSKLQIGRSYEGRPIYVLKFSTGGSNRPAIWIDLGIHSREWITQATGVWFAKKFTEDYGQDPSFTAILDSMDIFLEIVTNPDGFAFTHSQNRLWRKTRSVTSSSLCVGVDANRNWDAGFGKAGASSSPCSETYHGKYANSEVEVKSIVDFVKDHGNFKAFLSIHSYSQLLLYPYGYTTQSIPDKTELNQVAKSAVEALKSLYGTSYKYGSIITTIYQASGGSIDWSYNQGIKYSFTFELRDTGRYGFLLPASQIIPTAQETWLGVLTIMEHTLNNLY
Put plainly: Cooperative effect of the inhibitory zinc ion in the inhibition of CPA by the compound.

Assay [2] deals with T1, Carboxypeptidase A1 (Bos taurus). Put plainly: Apparent inhibitory constant of carboxypeptidase A (CPA) in presence of Zinc ion.
For assay [3], the target named is T2, Carboxypeptidase A1 (Bos taurus, UniProt P00730).
T2 sequence (P00730 whole entry): T1 sequence (whole entry)
Kind of assay: Inhibitory constant of carboxypeptidase A (CPA) in absence of Zinc ion.

The nature of assay [4]: Extent of enhancement of inhibitory potency of compound against carboxypeptidase A caused by zinc ion.

`O=C(O)C(Cc1ccccc1)Cc1c[nH]cn1` (stereo unspecified) displayed a Cooperative effect in assay [1] of 0.0047. The K'i in assay [2] is 1.01 µM. In addition, the affinity in assay [3] corresponds to a Ki of 214 µM. Moreover, in assay [4], the Ki/K'i is 212.

In turn, `O=C(O)C(Cc1ccccc1)c1cnc[nH]1` (stereo unspecified) had an inhibitory constant (Ki) in assay [3] of 0.26 µM.

`O=C(O)C(CCc1c[nH]cn1)Cc1ccccc1` (stereo unspecified) had a Cooperative effect in assay [1] of 0.0056. Further, the K'i in assay [2] came to 0.29 µM. In assay [3], this molecule showed an inhibition constant Ki of 15 µM. Further, the Ki/K'i in assay [4] amounted to 51.7.

Take `O=C(O)C(Cc1ccccc1)c1c[nH]cn1` (stereo unspecified): the Cooperative effect in assay [1] worked out at 1.88. In addition, the K'i in assay [2] turned out to be 0.49 µM. For the same molecule, in assay [4], the Ki/K'i amounted to 0.53.

For the molecule `O=C(O)C(CCCc1cnc[nH]1)Cc1ccccc1` (stereo unspecified), the inhibition constant (Ki) in assay [3] turned out to be 750 µM.

Turning to `O=C(O)C(CCCc1c[nH]cn1)Cc1ccccc1` (stereo unspecified), in assay [1], the Cooperative effect was 0.024. Moreover, the K'i in assay [2] stood at 18 µM. In addition, the Ki/K'i in assay [4] is 41.7.

One may read the Ki as a dissociation constant, usually derived from enzyme kinetics or from competition with a known ligand. Lower therefore signals a stronger hold on the target.
